Measurements reported in patent US7087620B2, “Liquid pharmaceutical formulations containing 3,7-diazabicyclo[3,3,1]nonane compounds and methods of treatment relating to anti-arrhythmic events” (Solvay Pharmaceuticals GmbH, priority 2002, dated 2006).
Entries after “also recorded” stand apart in the source; their conditions may differ.

Columns and labels:
Assay type in all cases: in vivo, human
[1] = test system: healthy male subjects; assay: Two step infusion study in healthy male subjects: pharmacodynamics (12-lead ECG: QT, QTc, heart rate); details: for Pharmacodynamic action on QT, QTc interval and heart rate: over two hours post dosing
Description: (§1) A double-blind, placebo-controlled, randomized, single iv dose, two periods cross-over study to assess the safety, tolerability, pharmacodynamics and pharmacokinetics during and following a two step infusion of Tedisamil in healthy male subjects was performed with the following drug and dosages: Tedisamil dihydrochloride/0.4 mg/kg body weight infused over 30 minutes.
• 1. To assess safety and tolerability of tedisamil in healthy male subjects during and following a two step infusion scheme (0.4 mg/kg body weight infused over 30 minutes, with half of the dose infused over 10 minutes and half of the dose infused over the remaining 20 minutes). • 2. […] Methodology:
This was a single center, double-blind, placebo-controlled, randomized, single iv dose, two period cross-over study. Subjects were randomly allocated to either treatment sequence tedisamil-placebo or placebo-tedisamil. Number of patients (planned, screened, randomized and analyzed): Planned: 18, Screened: 27, Randomized: 18, Analyzed: 18 in PK/PD and safety analyses.
Subjects were included in the study only if they were healthy males, their age was in the range of 18-40 years (both inclusive), their body mass index (BMI) was between 18 kg/m^2 and 28 kg/m^2. Test product, dose and mode of administration: Tedisamil dihydrochloride; Strength: 2 mg/ml; Dose: 0.4 mg/kg body weight infused over 30 minutes, with half of the dose infused over 10 minutes and half of the dose infused over the remaining 20 minutes. Route: intravenous.
12-lead ECG.s were taken at several time points to explore the pharmacodynamic effects of Tedisamil (effects on QT and QTc) during and following infusion. The maximum value and maximum increase were derived for QTc and QT and the minimum value and maximum decrease were derived for heart rate. The AUC(0-24) and the maximum for the placebo-corrected QTc and QT and the AUC(0-24) and the minimum for the placebo-corrected heart rate were also calculated.
Descriptive statistics were performed for the ECG intervals QT, QTc, RR, PR, QRS and for heart rate by treatment (tedisamil, placebo and “tedisamil−placebo”) and time point. Individual and mean (arithmetic mean±1 SD) time profiles for ECG intervals and heart rate were graphically presented for both treatments.
Derived parameters, i.e. maximum value and maximum increase for QTc and QT, and minimum value and maximum decrease for heart rate were submitted to separate analyses of (co)variance (covariance only for maximum and minimum values) including subject, treatment, sequence, and period as class effects (and the individual pre-dose value as covariate). Point estimates and 95% confidence intervals were constructed for the difference “tedisamil−placebo” using the residual variance. Model assumptions were checked by visual inspection of residual plots. Additionally, descriptive statistics were calculated for the derived parameters per treatment and for the difference “tedisamil−placebo”.
Descriptive statistics for the placebo corrected AUC(0-24) of QTc, QT and heart rate and the placebo corrected maximum effect (maximum for QTc and QT and minimum for heart rate) were calculated. In addition, 95% confidence intervals were derived based on normally distributed outcomes.

[2] = test system: healthy male subjects; assay: Two step infusion study in healthy male subjects: safety and tolerability; details: for Safety and tolerability: two step infusion of 0.4 mg tedisamil dihydrochloride per kg (0.32 mg/kg base)
Description: as §1
Screening assessments included physical examination, ECG, HIV/Hepatitis screening, blood pressure and heart rate measurements, clinical laboratory determinations, urine drug screen, alcohol breath test, and medical history. Follow-up assessments included physical examination, ECG, blood pressure and heart rate measurements, clinical laboratory determinations, and questions for adverse events and concomitant medication. During concomitant administration of Tedisamil, blood pressure, heart rate, and ECGs were recorded. Adverse events and concomitant medication were monitored throughout the study.
Subjects who received study medication, were considered valid for safety evaluation.
Treatment emergent adverse events, defined as any adverse event present at baseline that worsened or any event that began after treatment with study medication, were summarized by COSTART term for each treatment group. Each adverse event was evaluated for frequency of occurrence, duration, intensity, action taken, outcome, and relationship to administration of the study medication. Adverse events were listed for each subject.
Listings of abnormal or out of range values for each subject were presented for vital signs, laboratory assays, and physical examinations. Adverse events, blood pressure, heart rate and clinical laboratory data were analyzed descriptively and reviewed to evaluate the safety of all randomized subjects. Any clinical abnormalities were described.

[3] = test system: patients with atrial fibrillation or flutter; assay: Safety and tolerability of intravenous tedisamil in patients with atrial fibrillation or flutter
Description: The safety objective was: To determine the safety and tolerability of tedisamil versus placebo.
Safety was monitored regarding: Physical examination, ECG, 24-hour Holter monitoring, vital signs, laboratory evaluations and adverse events.
The intent-to-treat patient sample was analyzed for efficacy. All tests were two-sided and a p-value <0.05 was considered significant. Differences in percentages of conversion were compared among the treatment groups using the Pearson chi-square statistic. Safety analysis was conducted on the safety patient sample. Numbers and percentages of patients with adverse events were calculated for each treatment group, using MedDRA preferred terms and body systems. Descriptive statistics were summarized by treatment group for changes from baseline in QT, heart rate and blood pressure.
Physical examination, ECG, 24-hour Holter monitoring, vital signs, laboratory evaluations and adverse events.

[4] = 0.4 mg/kg tedisamil dihydrochloride iv, two step infusion over 30 minutes
[5] = difference tedisamil−placebo, analysis of covariance, 0.4 mg/kg iv two step infusion
[6] = difference tedisamil−placebo, analysis of variance, 0.4 mg/kg iv two step infusion
[7] = placebo-corrected, 0.4 mg/kg iv two step infusion
[8] = two-step infusion regimen, 0.4 and 0.6 mg/kg

C1CCC2(C1)C1CN(CC3CC3)CC2CN(CC2CC2)C1 [Tedisamil, N,N′-dicyclopropylmethyl-9,9-tetramethylene-3,7-diazabicyclo[3,3,1]nonane]
Heart Rate Max. Decrease, Arith. Mean (SD) [1, 4]: 10.6 (3.8) bpm
Heart Rate Minimum, Arith. Mean (SD) [1, 4]: 49.2 (7.0) bpm
QT Interval Max. Increase, Arith. Mean (SD) [1, 4]: 76.0 (22.4) ms
QT Interval Maximum, Arith. Mean (SD) [1, 4]: 474.2 (39.2) ms
QTc Interval Max. Increase, Arith. Mean (SD) [1, 4]: 61.1 (30.3) ms
QTc Interval Maximum, Arith. Mean (SD) [1, 4]: 455.9 (30.0) ms
Heart Rate Minimum, Estimate (Ted-Pla) [1, 5]: −4.01 bpm
QT Interval Maximum, Estimate (Ted-Pla) [1, 5]: 58.4 ms
QTc Interval Maximum, Estimate (Ted-Pla) [1, 5]: 34.0 ms
Heart Rate Max. Decrease, Estimate (Ted-Pla) [1, 6]: 4.22 bpm
QT Interval Max. Increase, Estimate (Ted-Pla) [1, 6]: 57.9 ms
QTc Interval Max. Increase, Estimate (Ted-Pla) [1, 6]: 34.1 ms
Pharmacodynamic action on QT, QTc interval and heart rate ([1]; two step infusion): a marked prolongation of QT and QTc interval and a distinct decrease in heart rate; also recorded: strong effect on QT, QTc and heart in the first two hours post dosing
Pharmacodynamic action on QT, QTc interval and heart rate ([1]; two step infusion, listed as TEDI): a prolongation of QT and QTc intervals and a distinct decrease in heart rate
Placebo-corrected Heart Rate AUC(0-24), Mean (SD) [1, 7]: −13.5 (11.5) bpm
Placebo-corrected Heart Rate Minimum, Mean (SD) [1, 7]: −15.9 (6.0) bpm
Placebo-corrected QT Interval AUC(0-24), Mean (SD) [1, 7]: 112.9 (382.9) ms
Placebo-corrected QT Interval Maximum, Mean (SD) [1, 7]: 74.7 (36.7) ms
Placebo-corrected QTc Interval AUC(0-24), Mean (SD) [1, 7]: 28.5 (170.5) ms
Placebo-corrected QTc Interval Maximum, Mean (SD) [1, 7]: 63.9 (26.9) ms
Effect on AUC(0-24) values of QT, QTc and heart rate ([1]; placebo-corrected, two step infusion): A significant effect of Tedisamil could not be found
Adverse events (AEs) ([2]; 0.4 mg/kg iv two step infusion, all judged probably related (injection site reaction, pain injection site, paresthesia)): six AEs were observed in five subjects
Systolic and diastolic blood pressure change ([2]; first four hours after dosing, 0.4 mg/kg iv two step infusion): small increase in the arithmetic mean of systolic and diastolic blood pressure
Pulse rate change ([2]; first hour after dosing, 0.4 mg/kg iv two step infusion): decrease in pulse rate
Safety and tolerability [2]: safe and well tolerated
Safety and tolerability ([2]; listed as TEDI): safe and well tolerated
TdP (Torsade de Point) ([3]; 30 min regimen, by gender): Almost all observed TdP (Torsade de Point) in 30 min regimen were in female patients
Gender difference in safety issues ([3]; first study (Phase II)): male patients show less safety issues than female patients
DC cardioversion required for treatment of VTs [3, 8]: no patient required DC cardioversion for treatment of VTs
Sustained polymorphic VT [3, 8]: no sustained polymorphic VT were observed
Tolerability in patients [3, 8]: well tolerated
